Source: ChEMBL document CHEMBL3244262, “A Fujita--Ban structure--activity analysis of 44 steroids” (1978)

Test system: Rattus norvegicus
Assay: Glucocorticoid activity in sc dosed bilaterally adrenalectomized rat assessed as glycogen deposition in liver administered for 5 days relative to cortisol
Format: functional

Row | SMILES | log(activity)
1 | CC(=O)C1(C(C)=O)CC[C@H]2[C@@H]3CCC4=CC(=O)CC[C@]4(C)[C@@]3(F)[C@@H](O)C[C@@]21C | -0.7
2 | C[C@]12CCC(=O)C=C1CC[C@@H]1[C@@H]2C(=O)C[C@@]2(C)[C@H]1CC[C@]2(O)C(=O)CO [CORTISONE] | -0.46
3 | C[C@H]1C[C@H]2[C@@H]3CC[C@](O)(C(=O)CO)[C@@]3(C)C[C@H](O)[C@]2(F)[C@@]2(C)C=CC(=O)C=C12 | 1.15
4 | CC(=O)[C@@]1(O)CC[C@H]2[C@@H]3CCC4=CC(=O)[C@H](C)C[C@]4(C)[C@@]3(F)[C@@H](O)C[C@@]21C | -0.11
5 | C[C@H]1C[C@@H]2[C@H]([C@@H](O)C[C@@]3(C)[C@H]2CC[C@]3(O)C(=O)CF)[C@@]2(C)C=CC(=O)C=C12 | 0.2
6 | CC(=O)OCC(=O)[C@@]1(O)CC[C@H]2[C@@H]3C[C@H](C)C4=CC(=O)CC[C@]4(C)[C@H]3C(=O)C[C@@]21C | -0.1
7 | C[C@]12CCC(=O)C=C1CC[C@@H]1[C@@H]2[C@@H](O)C[C@@]2(C)[C@H]1CC[C@]2(O)C(=O)CO [HYDROCORTISONE] | 0
8 | C[C@]12C=CC(=O)C=C1CC[C@H]1[C@@H]3C[C@@H](O)[C@](O)(C(=O)CO)[C@@]3(C)C[C@H](O)[C@@]12F [TRIAMCINOLONE] | 1.03
9 | C[C@H]1C[C@@H]2[C@H]([C@@H](O)C[C@@]3(C)[C@H]2CC[C@]3(O)C(=O)CF)[C@@]2(C)CCC(=O)C=C12 | 0.29
10 | C[C@]12CCC(=O)C=C1CC[C@H]1[C@@H]3CC[C@](O)(C(=O)CO)[C@@]3(C)C[C@H](O)[C@@]12F [FLUDROCORTISONE] | 0.9
11 | C[C@]12C=CC(=O)C=C1CC[C@@H]1[C@@H]2[C@@H](O)C[C@@]2(C)[C@H]1CC[C@]2(O)C(=O)CO [PREDNISOLONE] | 0.43
12 | CC(=O)[C@H]1CC[C@H]2[C@@H]3CCC4=CC(=O)[C@H](C)C[C@]4(C)[C@@]3(F)C(=O)C[C@]12C | -0.01
13 | CC(=O)[C@@]1(O)[C@H](O)C[C@H]2[C@@H]3CCC4=CC(=O)C=C[C@]4(C)[C@@]3(F)[C@@H](O)C[C@@]21C | 0.93
14 | CC(=O)[C@H]1[C@H](O)C[C@H]2[C@@H]3CCC4=CC(=O)CC[C@]4(C)[C@@]3(F)[C@@H](O)C[C@@]21C | -1.3
15 | C[C@]12C=CC(=O)C=C1C=C[C@@H]1[C@@H]2[C@@H](O)C[C@@]2(C)[C@H]1CC[C@]2(O)C(=O)CO | 0.08
16 | CC(=O)[C@H]1CC[C@H]2[C@@H]3C[C@H](C)C4=CC(=O)CC[C@]4(C)[C@@]3(F)[C@@H](O)C[C@]12C | 0.34

Row | SMILES | log(activity)
17 | C[C@]12C=CC(=O)C=C1CC[C@@H]1[C@@H]2C(=O)C[C@@]2(C)[C@H]1CC[C@]2(O)C(=O)CO [PREDNISONE] | 0.32
18 | CC(=O)[C@H]1CC[C@H]2[C@@H]3CCC4=CC(=O)[C@H](C)C[C@]4(C)[C@@]3(F)[C@@H](O)C[C@]12C | -0.28
19 | CC(=O)[C@H]1CC[C@H]2[C@@H]3C[C@H](F)C4=CC(=O)CC[C@]4(C)[C@@]3(F)[C@@H](O)C[C@]12C | 0.06
20 | C[C@@H]1C[C@H]2[C@@H]3C[C@H](F)C4=CC(=O)CC[C@]4(C)[C@H]3CC[C@]2(C)[C@@]1(O)C(=O)CO | -0.6
21 | CC(=O)[C@H]1CC[C@H]2[C@@H]3CCC4=CC(=O)CC[C@]4(C)[C@@]3(F)[C@@H](O)C[C@]12C | -1.3
22 | C[C@]12C[C@H](O)[C@H]3[C@@H](CCC4=CC(=O)CC[C@@]43C)[C@@H]1CC[C@@H]2C(=O)CO [CORTICOSTERONE] | -0.55
23 | CC(=O)[C@H]1CC[C@H]2[C@@H]3C[C@H](C)C4=CC(=O)CC[C@]4(C)[C@H]3C(=O)C[C@]12C | 0.12
24 | CC(=O)[C@@]1(O)CC[C@H]2[C@@H]3C[C@H](C)C4=CC(=O)CC[C@]4(C)[C@H]3[C@@H](O)C[C@@]21C | 0.36
25 | CC(=O)[C@H]1CC[C@H]2[C@@H]3C[C@H](F)C4=CC(=O)CC[C@]4(C)[C@H]3C(=O)C[C@]12C | -1.15
26 | C[C@@H]1C[C@@]2(C)C(=CC1=O)CC[C@@H]1[C@@H]2[C@@H](O)C[C@@]2(C)[C@H]1CC[C@]2(O)C(=O)CO | 0.64
27 | C[C@H]1C[C@@H]2[C@H]([C@@H](O)C[C@@]3(C)[C@H]2CC[C@]3(O)C(=O)CO)[C@@]2(C)CCC(=O)C=C12 | 0.2
28 | CC(=O)[C@H]1[C@H](C)C[C@H]2[C@@H]3CCC4=CC(=O)CC[C@]4(C)[C@@]3(F)C(=O)C[C@@]21C | -0.11
29 | C[C@]12CCC(=O)C=C1CC[C@H]1[C@@H]3C[C@@H](O)[C@](O)(C(=O)CO)[C@@]3(C)C[C@H](O)[C@@]12F | 0.53
30 | C[C@]12CCC(=O)C=C1C=C[C@@H]1[C@@H]2[C@@H](O)C[C@@]2(C)[C@H]1CC[C@]2(O)C(=O)CO | -0.15
31 | C[C@]12CC(=O)[C@H]3[C@@H](CCC4=CC(=O)CC[C@@]43C)[C@@H]1CC[C@@H]2C(=O)CO | -0.31
